Values of other authors as cited in paper PMC12715049 (Journal of Molecular Medicine (Berlin, Germany), 2025).

Tested on: mHTT aggregates
Settings: read-out: IC50, binding to mHTT aggregates; radio-binding assays

IC50: 1.3 ± 1 nM
Structure (SMILES): COc1ccc(COc2ccc3oc(-c4ccc(=O)n(C)n4)nc3c2)nc1 [CHDI-180R]
